One compound from paper PMC7213978, “The dynamic interplay of host and viral enzymes in type III CRISPR-mediated cyclic nucleotide signalling” (eLife, 2020) can be followed below.

The target in assay [1] is T1, Csx1 (Saccharolobus solfataricus, UniProt Q97YD5).
T1 construct: recombinant from plasmid expression construct; homodimer
T1 sequence (Q97YD5 1-377): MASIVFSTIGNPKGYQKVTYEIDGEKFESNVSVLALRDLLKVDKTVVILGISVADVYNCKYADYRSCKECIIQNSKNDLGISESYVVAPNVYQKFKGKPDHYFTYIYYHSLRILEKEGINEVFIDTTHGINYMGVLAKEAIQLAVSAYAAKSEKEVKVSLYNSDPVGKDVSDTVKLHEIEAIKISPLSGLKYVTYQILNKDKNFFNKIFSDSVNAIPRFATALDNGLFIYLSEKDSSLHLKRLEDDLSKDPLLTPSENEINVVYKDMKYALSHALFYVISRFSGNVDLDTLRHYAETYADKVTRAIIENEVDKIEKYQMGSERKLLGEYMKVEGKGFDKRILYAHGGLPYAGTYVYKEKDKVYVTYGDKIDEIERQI
Kind of assay: native gel electrophoretic mobility shift, quadratic fit. It is filed as binding.

The target in assay [2] is T2, Crn1 (Sso2081) (Saccharolobus solfataricus, UniProt Q7LYJ6).
T2 construct: recombinant from plasmid expression construct; homodimer
T2 sequence (Q7LYJ6 1-178): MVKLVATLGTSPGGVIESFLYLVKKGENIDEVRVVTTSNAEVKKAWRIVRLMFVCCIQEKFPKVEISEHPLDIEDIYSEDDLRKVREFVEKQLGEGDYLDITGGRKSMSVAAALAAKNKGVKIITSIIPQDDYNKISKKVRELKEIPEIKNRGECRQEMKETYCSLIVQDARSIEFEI
Put plainly: native gel electrophoretic mobility shift. It is filed as binding. The note with it: read-out: apparent KD.

With `Nc1ncnc2c1ncn2[C@@H]1O[C@@H]2COP(=O)(O)O[C@H]3[C@@H](O)[C@H](n4cnc5c(N)ncnc54)O[C@@H]3COP(=O)(O)O[C@H]3[C@@H](O)[C@H](n4cnc5c(N)ncnc54)O[C@@H]3COP(=O)(O)O[C@H]3[C@@H](O)[C@H](n4cnc5c(N)ncnc54)O[C@@H]3COP(=O)(O)O[C@H]2[C@H]1O` [cA4, cyclic tetra-adenylate], the Kd was 130 ± 20 nM in assay [1] and around 50 nM in assay [2].
